In ChEMBL document CHEMBL2150933 (J Med Chem, 2012):

Tests used:
Assay type in all cases: functional
COLO 205 [1] = assay: Cytotoxicity against human COLO205 cells after 48 hrs by SRB assay; conditions: COLO 205, 48 h
BXPC-3 = assay: Cytotoxicity against human BxPC3 cells after 72 hrs by MTT assay; conditions: BXPC-3, 72 h
[2] = Cytotoxicity against human 786-O cells after 48 hrs by SRB assay; conditions: 786-0, 48 h
A549 [3] = assay: Cytotoxicity against human A549 cells after 48 hrs by SRB assay; conditions: A549, 48 h
A549 [4] = assay: Cytotoxicity against human A549 cells after 72 hrs by MTT assay; conditions: A549, 72 h
MDA-MB-231 = assay: Cytotoxicity against human MDA-MB-231 cells after 48 hrs by SRB assay; conditions: MDA-MB-231, 48 h
COLO 205 [5] = assay: Cytotoxicity against human COLO205 cells after 72 hrs by MTT assay; conditions: COLO 205, 72 h
IGROV-1 = assay: Cytotoxicity against human IGROV1 cells after 48 hrs by SRB assay; conditions: IGROV-1, 48 h
OVCAR-8 = assay: Cytotoxicity against human OVCAR8 cells after 48 hrs by SRB assay; conditions: OVCAR-8, 48 h
SF-295 = assay: Cytotoxicity against human SF295 cells after 48 hrs by SRB assay; conditions: SF-295, 48 h
U-251 = assay: Cytotoxicity against human U251 cells after 48 hrs by SRB assay; conditions: U-251, 48 h
SK-MEL-5 = assay: Cytotoxicity against human SK-MEL-5 cells after 48 hrs by SRB assay; conditions: SK-MEL-5, 48 h
K562 = assay: Cytotoxicity against human K562 cells after 48 hrs by SRB assay; conditions: K562, 48 h
EKVX = assay: Cytotoxicity against human EKVX cells after 48 hrs by SRB assay
TK-10 = assay: Cytotoxicity against human TK10 cells after 48 hrs by SRB assay; conditions: TK-10, 48 h
HCT-15 = assay: Cytotoxicity against human HCT15 cells after 48 hrs by SRB assay; conditions: HCT-15, 48 h
CAKI-1 = assay: Cytotoxicity against human Caki1 cells after 48 hrs by SRB assay; conditions: CAKI-1, 48 h
UACC-257 = assay: Cytotoxicity against human UACC257 cells after 48 hrs by SRB assay; conditions: UACC-257, 48 h
SNB-75 = assay: Cytotoxicity against human SNB75 cells after 48 hrs by SRB assay; conditions: SNB-75, 48 h
NCI-H460 = assay: Cytotoxicity against human NCI-H460 cells after 48 hrs by SRB assay; conditions: NCI-H460, 48 h
MDA-MB-435 = assay: Cytotoxicity against human MDA-MB-435 cells after 48 hrs by SRB assay; conditions: MDA-MB-435, 48 h
NCI-H522 = assay: Cytotoxicity against human NCI-H522 cells after 48 hrs by SRB assay; conditions: NCI-H522, 48 h
UO-31 = assay: Cytotoxicity against human UO31 cells after 48 hrs by SRB assay; conditions: UO-31, 48 h
HCC 2998 = assay: Cytotoxicity against human HCC2998 cells after 48 hrs by SRB assay; conditions: HCC 2998, 48 h
SK-MEL-2 = assay: Cytotoxicity against human SK-MEL-2 cells after 48 hrs by SRB assay; conditions: SK-MEL-2, 48 h
[6] = Cytotoxicity against human NCI-ADR-RES cells after 48 hrs by SRB assay
SF-539 = assay: Cytotoxicity against human SF539 cells after 48 hrs by SRB assay; conditions: SF-539, 48 h
RPMI-8226 = assay: Cytotoxicity against human RPMI8226 cells after 48 hrs by SRB assay; conditions: RPMI-8226, 48 h
NCI-H23 = assay: Cytotoxicity against human NCI-H23 cells after 48 hrs by SRB assay; conditions: NCI-H23, 48 h
M14 = assay: Cytotoxicity against human M14 cells after 48 hrs by SRB assay; conditions: M14, 48 h
OVCAR-3 = assay: Cytotoxicity against human OVCAR3 cells after 48 hrs by SRB assay; conditions: OVCAR-3, 48 h
HOP-62 = assay: Cytotoxicity against human HOP62 cells after 48 hrs by SRB assay; conditions: HOP-62, 48 h
Hs-578T = assay: Cytotoxicity against human Hs578T cells after 48 hrs by SRB assay
MOLT-4 = assay: Cytotoxicity against human MOLT4 cells after 48 hrs by SRB assay; conditions: MOLT-4, 48 h
UACC-62 = assay: Cytotoxicity against human UACC62 cells after 48 hrs by SRB assay; conditions: UACC-62, 48 h
MCF7 = assay: Cytotoxicity against human MCF7 cells after 48 hrs by SRB assay; conditions: MCF7, 48 h
BT-549 = assay: Cytotoxicity against human BT549 cells after 48 hrs by SRB assay; conditions: BT-549, 48 h
DU-145 = assay: Cytotoxicity against human DU145 cells after 48 hrs by SRB assay; conditions: DU-145, 48 h
OVCAR-5 = assay: Cytotoxicity against human OVCAR5 cells after 48 hrs by SRB assay; conditions: OVCAR-5, 48 h
SK-OV-3 = assay: Cytotoxicity against human SKOV3 cells after 48 hrs by SRB assay; conditions: SK-OV-3, 48 h
OVCAR-4 = assay: Cytotoxicity against human OVCAR4 cells after 48 hrs by SRB assay; conditions: OVCAR-4, 48 h
SN12C = assay: Cytotoxicity against human SN12C cells after 48 hrs by SRB assay
T47D = assay: Cytotoxicity against human T47D cells after 48 hrs by SRB assay
MDA-MB-468 = assay: Cytotoxicity against human MDA-MB-468 cells after 48 hrs by SRB assay; conditions: MDA-MB-468, 48 h
SK-MEL-28 = assay: Cytotoxicity against human SK-MEL-28 cells after 48 hrs by SRB assay; conditions: SK-MEL-28, 48 h
A498 = assay: Cytotoxicity against human A498 cells after 48 hrs by SRB assay; conditions: A498, 48 h
HL-60 = assay: Cytotoxicity against human HL60 cells after 48 hrs by SRB assay; conditions: HL-60, 48 h
ACHN = assay: Cytotoxicity against human ACHN cells after 48 hrs by SRB assay
HOP-92 = assay: Cytotoxicity against human HOP92 cells after 48 hrs by SRB assay; conditions: HOP-92, 48 h
RXF 393 = assay: Cytotoxicity against human RXF393 cells after 48 hrs by SRB assay; conditions: RXF 393, 48 h
PC-3 = assay: Cytotoxicity against human PC3 cells after 48 hrs by SRB assay; conditions: PC-3, 48 h
HT-29 = assay: Cytotoxicity against human HT-29 cells after 48 hrs by SRB assay; conditions: HT-29, 48 h
KM12 = assay: Cytotoxicity against human KM12 cells after 48 hrs by SRB assay; conditions: KM12, 48 h
Malme-3M = assay: Cytotoxicity against human MALME-3M cells after 48 hrs by SRB assay
SR = assay: Cytotoxicity against human SR cells after 48 hrs by SRB assay
HCT-116 = assay: Cytotoxicity against human HCT116 cells after 48 hrs by SRB assay; conditions: HCT-116, 48 h
SNB-19 = assay: Cytotoxicity against human SNB19 cells after 48 hrs by SRB assay; conditions: SNB-19, 48 h
SF-268 = assay: Cytotoxicity against human SF268 cells after 48 hrs by SRB assay; conditions: SF-268, 48 h
SW-620 = assay: Cytotoxicity against human SW620 cells after 48 hrs by SRB assay; conditions: SW-620, 48 h
NCI-H226 = assay: Cytotoxicity against human NCI-H226 cells after 48 hrs by SRB assay; conditions: NCI-H226, 48 h
LOX IMVI = assay: Cytotoxicity against human LOXIMVI cells after 48 hrs by SRB assay
CCRF-CEM = assay: Cytotoxicity against human CCRF-CEM cells after 48 hrs by SRB assay

CO[C@H](C(=O)C(C)=O)[C@@H]1Cc2cc3cc(O[C@H]4C[C@@H](O[C@H]5C[C@@H](O)[C@H](O)[C@@H](C)O5)[C@H](O)[C@@H](C)O4)c(C)c(O)c3c(O)c2C(=O)[C@H]1O[C@H]1C[C@@H](O[C@H]2C[C@@H](O)[C@H](O)[C@@H](C)O2)[C@H](O)[C@@H](C)O1
GI50 (COLO 205 [1]; read-out: pGI50 (converted)): 83.2 nM | GI50 (BXPC-3): 300 nM | GI50 [2]: 166 nM | GI50 (A549 [3]; read-out: pGI50 (converted)): 170 nM | GI50 (A549 [4]): 300 nM | GI50 (MDA-MB-231; read-out: pGI50 (converted)): 240 nM | GI50 (COLO 205 [5]): 300 nM

CO[C@H](C(=O)[C@@H](O)[C@@H](C)O)[C@@H]1Cc2cc3cc(O[C@H]4C[C@@H](O[C@@H]5C[C@@H](O)[C@H](O)[C@@H](C)O5)[C@H](O)[C@@H](C)O4)c(C)c(O)c3c(O)c2C(=O)[C@H]1O[C@H]1C[C@@H](O[C@@H]2C[C@@H](O)[C@@H](O[C@@H]3C[C@](C)(O)[C@H](O)[C@@H](C)O3)[C@@H](C)O2)[C@H](O)[C@@H](C)O1 [PLICAMYCIN]
GI50 (IGROV-1; read-out: GI50): 158 nM | GI50 (OVCAR-8; read-out: GI50): 79 nM | GI50 (SF-295; read-out: GI50): 79 nM | GI50 (COLO 205 [1]; read-out: GI50): 63 nM | GI50 (A549 [3]; read-out: GI50): 79 nM | GI50 (U-251; read-out: GI50): 63 nM | GI50 (MDA-MB-231; read-out: GI50): 166 nM | GI50 (SK-MEL-5; read-out: GI50): 63 nM

CO[C@H](C(=O)[C@@H](O)[C@@H](C)O)[C@@H]1Cc2cc3cc(O[C@H]4C[C@@H](O[C@H]5C[C@@H](O)[C@H](O)[C@@H](C)O5)[C@H](O)[C@@H](C)O4)c(C)c(O)c3c(O)c2C(=O)[C@H]1O[C@H]1C[C@@H](O[C@H]2C[C@@H](O[C@H]3C[C@H](O)[C@H](O)[C@@H](C)O3)[C@H](O)[C@@H](C)O2)[C@H](O)[C@@H](C)O1
GI50 (K562): 24.6 nM | GI50 (EKVX): 135 nM | GI50 (IGROV-1; read-out: pGI50 (converted)): 75.9 nM | GI50 (TK-10): 129 nM | GI50 (OVCAR-8; read-out: pGI50 (converted)): 53.7 nM | GI50 (HCT-15): 1050 nM | GI50 (CAKI-1): 229 nM | GI50 (UACC-257): 69.2 nM | GI50 (SNB-75): 30.2 nM | GI50 (NCI-H460): 21.4 nM | GI50 (MDA-MB-435): 42.7 nM | GI50 (NCI-H522): 14.1 nM | GI50 (UO-31): 166 nM | GI50 (HCC 2998): 61.7 nM | GI50 (SF-295; read-out: pGI50 (converted)): 39.8 nM | GI50 (COLO 205 [1]; read-out: pGI50 (converted)): 49 nM | GI50 (SK-MEL-2): 33.9 nM | GI50 [6]: 7760 nM | GI50 (SF-539): 33.1 nM | GI50 (RPMI-8226): 11.8 nM | GI50 (NCI-H23): 41.7 nM | GI50 (M14): 100 nM | GI50 (OVCAR-3): 69.2 nM | GI50 (HOP-62): 56.2 nM | GI50 (Hs-578T): 28.2 nM | GI50 (MOLT-4): 47.9 nM | GI50 (UACC-62): 12.3 nM | GI50 (MCF7): 12.9 nM | GI50 (BT-549): 17 nM | GI50 [2]: 61.7 nM | GI50 (DU-145): 91.2 nM | GI50 (OVCAR-5): 79.4 nM | GI50 (SK-OV-3): 102 nM | GI50 (OVCAR-4): 209 nM | GI50 (SN12C): 35.5 nM | GI50 (T47D): 44.7 nM | GI50 (A549 [3]; read-out: pGI50 (converted)): 41.7 nM | GI50 (MDA-MB-468): 50.1 nM | GI50 (SK-MEL-28): 27.5 nM | GI50 (A498): 32.4 nM | GI50 (HL-60): 53.7 nM | GI50 (ACHN): 155 nM | GI50 (U-251; read-out: pGI50 (converted)): 23.4 nM | GI50 (HOP-92): 30.2 nM | GI50 (RXF 393): 25.7 nM | GI50 (PC-3): 100 nM | GI50 (HT-29): 75.9 nM | GI50 (MDA-MB-231; read-out: pGI50 (converted)): 132 nM | GI50 (SK-MEL-5; read-out: pGI50 (converted)): 27.5 nM | GI50 (KM12): 29.5 nM | GI50 (Malme-3M): 24 nM | GI50 (SR): 14.1 nM | GI50 (HCT-116): 19.5 nM | GI50 (SNB-19): 43.6 nM | GI50 (SF-268): 30.9 nM | GI50 (SW-620): 29.5 nM | GI50 (NCI-H226): 45.7 nM | GI50 (LOX IMVI): 20.4 nM | GI50 (CCRF-CEM): 28.2 nM
